Measurements taken from article PMC5006061 (Biochimie, 2016).

Tests used:
GLUT1 [1] = biological target: T1, GLUT1 (Homo sapiens, UniProt P11166); test: Reduction of specific 3H-cytochalasin B binding in HCLE cells; assay type: cell-based
T1 sequence (P11166 1-492): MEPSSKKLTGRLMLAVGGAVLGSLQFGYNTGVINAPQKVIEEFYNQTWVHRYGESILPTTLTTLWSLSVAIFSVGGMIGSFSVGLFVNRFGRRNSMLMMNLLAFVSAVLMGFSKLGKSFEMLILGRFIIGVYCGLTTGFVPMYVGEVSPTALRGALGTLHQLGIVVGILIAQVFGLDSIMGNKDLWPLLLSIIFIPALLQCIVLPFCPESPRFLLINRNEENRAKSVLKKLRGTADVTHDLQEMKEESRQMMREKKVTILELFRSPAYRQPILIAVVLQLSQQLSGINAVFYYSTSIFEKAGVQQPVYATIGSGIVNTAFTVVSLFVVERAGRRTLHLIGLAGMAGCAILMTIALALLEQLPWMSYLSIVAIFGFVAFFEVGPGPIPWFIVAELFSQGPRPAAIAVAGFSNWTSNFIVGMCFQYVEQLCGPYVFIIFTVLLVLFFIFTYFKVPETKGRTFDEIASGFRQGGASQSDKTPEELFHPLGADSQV

GLUT1 [2] = biological target: T2, GLUT1 (Mus musculus, UniProt P17809); test: Inhibition of 3H-2-deoxyglucose uptake in L929 cells; assay type: cell-based
T2 sequence (P17809 1-492): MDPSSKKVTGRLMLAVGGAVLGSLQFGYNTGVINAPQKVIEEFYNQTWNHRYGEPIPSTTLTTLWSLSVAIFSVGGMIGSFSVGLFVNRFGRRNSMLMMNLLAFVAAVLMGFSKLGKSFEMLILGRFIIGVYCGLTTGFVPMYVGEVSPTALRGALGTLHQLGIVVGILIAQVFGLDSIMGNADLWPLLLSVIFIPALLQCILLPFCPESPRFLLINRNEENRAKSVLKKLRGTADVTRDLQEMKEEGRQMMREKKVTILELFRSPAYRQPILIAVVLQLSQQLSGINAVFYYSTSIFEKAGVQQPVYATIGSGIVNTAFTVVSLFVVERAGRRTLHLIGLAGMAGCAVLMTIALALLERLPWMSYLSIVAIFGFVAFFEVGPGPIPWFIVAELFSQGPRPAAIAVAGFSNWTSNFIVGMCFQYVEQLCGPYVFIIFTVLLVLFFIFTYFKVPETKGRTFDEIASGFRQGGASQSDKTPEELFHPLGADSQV

- Reduction of specific 3H-cytochalasin B binding in HCLE cells; 2DG uptake inhibi (GLUT1 [1]): 80% reduction at 75
- IC50 (GLUT1 [2]): 19 µM
Structure (SMILES): COc1cc(/C=C/C(=O)CC(=O)/C=C/c2ccc(O)c(OC)c2)ccc1O [Cur, Curcumin]
